“Also recorded” adds a separate entry of the source. Marks after values point to notes of the source that are not given here.
Experiments:
ovariectomy (OVX) rats [1] = experiment: Blood markers  (17β-estradiol, osteocalcin, CTx) in ovariectomized rats; format: in vivo, Sprague-Dawley rats; conditions: for blood 17β-estradiol reduction by ovariectomy: OVX rats; for Estradiol: serum 17β-estradiol, 12 weeks after ovariectomy, mean ± SD, 5 rats
[2] = test system: human colo 205 rectal cancer cells; experiment: Rectal cancer animal experiment, Colo205 xenograft model; format: in vivo; conditions: for MTV (n) Day 28: median tumor volume; for Deaths NTR: non-treatment-related deaths; for % TGI: percent tumor growth inhibition compared to Group 1 (vehicle), Day 28, 0.83 mg/kg po; for Deaths TR: treatment-related deaths
Description: Using human colo 205 rectal cancer cells as xenograft model, clinical experiments were performed with adenocarcinoma nude mice for 28 days. In this regard, the experimental method and usage are shown in Table 8 (Protocol Design for the Colo205-e347 Study) and Table 9 (Final treatment regimen at completion of the study) below.

ovariectomy (OVX) rats [3] = experiment: Hematological analysis in ovariectomized rats; format: in vivo, Sprague-Dawley rats
Description: Blood samples were collected at 12 weeks post-surgery.
Hematological experiments were performed using T-540 Coulter Counter (Coulter Electronics Inc., Hialeah, USA) and ADVIA 120 Hematology System (Bayer Healthcare LLC, Tarrytown, USA). White blood cells (WBCs), differential leukocyte counts, hematocrit, red blood cells (RBCs), mean corpuscular volume (MCV), mean corpuscular hemoglobin (MCH), mean corpuscular hemoglobin concentration (MCHC), and platelet count were subjected to analysis, respectively.

ovariectomy (OVX) rats [4] = experiment: Blood markers  (17β-estradiol, osteocalcin, CTx) in ovariectomized rats; format: in vivo, Sprague-Dawley rats; conditions: for C-terminal telopeptide: serum CTx
Description: Osteocalcin levels were measured using a sandwich ELISA kit (Biomedical Technologies Inc., Stoughton, USA), while CTx levels were measured using a serum RatLaps ELISA kit (IDS Inc., Fountain Hills, USA).

ovariectomy (OVX) rats [5] = experiment: Change in weight of organs in ovariectomized rats; format: in vivo, Sprague-Dawley rats
Description: 12 week old female SPF Sprague-Dawley rats (body weight: 250 g; n=15) were purchased from the Korean Laboratory Animals Center (Eumseong, South Korea). Breeding conditions were as follows: temperature, 23+3° C.; relative humidity, 55+10%; lighting time, 12 hours (08:00-20:00); ventilation frequency, 10-20 changes/h; illumination, 150-300 lux. The temperature and humidity were measured using a hygrometer in units of time, and there were no variables that could affect the experimental results. The animals were fed normal rodent feed and purified water.
The experimental animals were randomly divided into three groups. After adaptation, bilateral laparotomy (sham) or bilateral ovariectomy (OVX) was performed on the rats.
Changes in the body weight and feeding and water intake were measured at a regular interval.

ovariectomy (OVX) rats [6] = experiment: Blood biochemical analysis in ovariectomized rats; conditions: for bone growth marker ALP: OVX rats, serum
Description: Blood samples were collected at 12 weeks post-surgery. Animals were deprived of food for 16 hours and then anesthetized prior to blood sampling (Zoletile 50, Virbac, Korea). 0.5 mL of blood was collected from the abdominal artery and stored at 4° C. in a refrigerator.
A portion of the blood was used for hematological experiments, and the remaining blood was centrifuged at 3,000 rpm for 10 minutes to obtain serum. The serum was used for blood biochemical experiments and bone metabolism markers 17β-estradiol, osteocalcin and CTx analysis.
The parameters measured for blood biochemical analysis (Ciba-Corning 644 Na/K/Cl Analyzer, Ciba-Corning, Medfield, USA) were as follows: alanine aminotransferase (ALT), aspartate aminotransferase (AST), alkaline phosphatase (ALP), blood urea nitrogen (BUN), glucose, triglycerides (TG), total cholesterol (TC), high-density lipoproteins (HDL), low-density lipoproteins (LDL), total proteins (TP), albumin, calcium and phosphorus.

ovariectomy (OVX) rats [7] = experiment: Femur bone mineral density (DEXA), breaking force and mineral content in ovariectomized rats; format: in vivo, Sprague-Dawley rats; conditions: for BMD: femur
Description: Using dual energy X-ray absorptionmetry (DEXA; Prodigy Advance, Donga imaging, Korea), the bone mineral density (BMD) of the femur was measured. Immediately after BMD measurement, the femur was subjected to mechanical test at room temperature using a material testing machine (MZ500D; Maruto, Tokyo, Japan). For stabilization, the mid-diaphysis of the thigh was placed on two supports at an interval of 4 mm on a test device. A three-point bending test was performed in front and rear directions at the midpoint between the two supports. Breaking force was measured using software (CTR win, Ver. 1.05) to measure bone strength. […] Then, the thigh was placed at 800° C. for 16 hours, and the weight of the ash was measured. […] Calcium and phosphorus contents were measured using an atomic absorption spectrophotometer (PerkinElmer; A Analyst 100 Spectrophotometer, Boston, USA).

multiple myeloma (MM) = experiment: Multiple myeloma animal experiment; format: in vivo, 5TGM1-grafted NSG mice
[8] = blood at 12 weeks post-surgery, mean ± SD, 5 rats
[9] = OVX rats, increased after ovariectomy
[10] = 12 weeks after ovariectomy, mean ± SD, 5 rats
[11] = serum, 12 weeks after ovariectomy, mean ± SD, 5 rats
[12] = OVX rats, treatment for 12 weeks after ovariectomy, mean ± SD, 5 rats
[13] = serum at 12 weeks post-surgery, mean ± SD, 5 rats
[14] = femur ash, reduced by ovariectomy
[15] = DEXA, treatment for 12 weeks after ovariectomy, mean ± SD, 5 rats

Sigma Anti-bonding Molecule Calcium Carbonate [SAC, reference compound]
blood 17β-estradiol reduction by ovariectomy (ovariectomy (OVX) rats [1]): quite recovered | Estradiol (ovariectomy (OVX) rats [1]): 4.217 ± 0.247^a pg/ml | Mean BW Nadir ([2]; lowest group mean body weight as % change from Day 1, — indicates no decrease in mean body weight was observed): −0.4% Day 2 | MTV (n) Day 28 ([2]; 0.83 mg/kg po): 896 (9) mm^3 | Deaths NTR ([2]; 0.83 mg/kg po): 1 | Regressions CR ([2]; number of complete regressions, 0.83 mg/kg po): 0 | Regressions PR ([2]; number of partial regressions, 0.83 mg/kg po): 0 | % TGI [2]: 4% | Deaths TR ([2]; 0.83 mg/kg po): 0 | Regressions TFS ([2]; tumor free survivors at end of study, 0.83 mg/kg po): 0 | Basophils (ovariectomy (OVX) rats [3]; [8]): 0.02 ± 0.04 9% | Eosinophils (ovariectomy (OVX) rats [3]; [8]): 5.04 ± 3.88% | Hematocrit (ovariectomy (OVX) rats [3]; [8]): 43.94 ± 2.18% | Lymphocytes (ovariectomy (OVX) rats [3]; [8]): 70.36 ± 8.78% | Mean corpuscular hemoglobin (ovariectomy (OVX) rats [3]; [8]): 30.50 ± 0.75 pg | Mean corpuscular hemoglobin concentration (ovariectomy (OVX) rats [3]; [8]): 57.14 ± 0.76 g/dL | Mean corpuscular volume (ovariectomy (OVX) rats [3]; [8]): 53.44 ± 1.24 fL | Monocytes (ovariectomy (OVX) rats [3]; [8]): 2.50 ± 1.44% | Neutrophils (ovariectomy (OVX) rats [3]; [8]): 21.21 ± 6.19% | Platelet (ovariectomy (OVX) rats [3]; [8]): 1297.0 ± 91.27 10^3/mm^3 | Red blood cell (ovariectomy (OVX) rats [3]; [8]): 8.23 ± 0.55 10^6/µL | White blood cell (ovariectomy (OVX) rats [3]; [8]): 4.84 ± 1.17 10^3/μl | C-terminal telopeptide / CTx (ovariectomy (OVX) rats [4]; [9]): quite reduced | osteocalcin (ovariectomy (OVX) rats [4]; [9]): considerably reduced | C-terminal telopeptide (ovariectomy (OVX) rats [4]; [10]): 4.360 ± 0.495^a ng/ml | osteocalcin (ovariectomy (OVX) rats [4]; [11]): 3.558 ± 0.154^ac ng/mL | Adrenal gland Left weight (ovariectomy (OVX) rats [5]; [12]): 0.0094 ± 0.0014 g | Adrenal gland Right weight (ovariectomy (OVX) rats [5]; [12]): 0.0094 ± 0.0014 g | Body weight (ovariectomy (OVX) rats [5]; [12]): 371.36 ± 9.97 g | Brain weight (ovariectomy (OVX) rats [5]; [12]): 0.5526 ± 0.02 | Femur Left weight (ovariectomy (OVX) rats [5]; [12]): 0.2935 ± 0.02 g | Femur Right weight (ovariectomy (OVX) rats [5]; [12]): 0.2902 ± 0.02 g | Kidney: Left weight (ovariectomy (OVX) rats [5]; [12]): 0.2687 ± 0.01 g | Kidney: Right weight (ovariectomy (OVX) rats [5]; [12]): 0.2626 ± 0.02 g | Liver weight (ovariectomy (OVX) rats [5]; [12]): 2.1820 ± 0.15 g | Pituitary weight (ovariectomy (OVX) rats [5]; [12]): 4.2 ± 1 mg | Spleen weight (ovariectomy (OVX) rats [5]; [12]): 0.1856 ± 0.02 g | Uterus weight (ovariectomy (OVX) rats [5]; [12]): 0.0444 ± 0.02 g | Vagina weight (ovariectomy (OVX) rats [5]; [12]): 0.0575 ± 0.02 g | bone growth marker ALP (ovariectomy (OVX) rats [6]): recovered to a normal level | ALP (ovariectomy (OVX) rats [6]; [13]): 108.2 ± 20.7 IU/l | Albumin (ovariectomy (OVX) rats [6]; [13]): 2.7 ± 0.1 g/dL | BUN (ovariectomy (OVX) rats [6]; [13]): 9.2 ± 2.4 mg/dL | GOT (ovariectomy (OVX) rats [6]; [13]): 148.0 ± 30.4 IU/l | GPT (ovariectomy (OVX) rats [6]; [13]): 22.4 ± 4.0 IU/l | Glucose (ovariectomy (OVX) rats [6]; [13]): 112.4 ± 7.7 mg/dL | HDL (ovariectomy (OVX) rats [6]; [13]): 23.8 ± 5.2 mg/dL | LDL-C (ovariectomy (OVX) rats [6]; [13]): 8.0 ± 5.2 mg/dL | Phosphorus (ovariectomy (OVX) rats [6]; [13]): 4.1 ± 0.6 mg/dL | TC (ovariectomy (OVX) rats [6]; [13]): 73.0 ± 17.3 mg/dL | TG (ovariectomy (OVX) rats [6]; [13]): 20.6 ± 7.7 mg/dL | TP (ovariectomy (OVX) rats [6]; [13]): 4.7 ± 0.2 | calcium (ovariectomy (OVX) rats [6]; [13]): 6.7 ± 0.4 mg/dL | calcium (ovariectomy (OVX) rats [7]; [14]): not significantly different from the Sham group | BMD (ovariectomy (OVX) rats [7]; [15]): 0.228 ± 0.012 g/cm²

Sigma Anti-bonding Molecule Calcium gluconate [SAC gluconate]
blood 17β-estradiol reduction by ovariectomy (ovariectomy (OVX) rats [1]): quite recovered | Estradiol (ovariectomy (OVX) rats [1]): 4.417 ± 0.347^a pg/ml | extension of survival versus control (multiple myeloma (MM); 80 mg/kg orally 3 times per day, 83 versus 58 days): 43% | survival after tumor inoculation (multiple myeloma (MM); 80 mg/kg orally 3 times per day, control group survived 58 days): 83 days | tumor growth (FIG. 8) (multiple myeloma (MM); text result versus control group): stopped or at least became dull | tumor growth (FIG. 4) ([2]; Colo205 xenograft mice): tumor growth was slowed down after 12 days | tumor growth and size of tumor (FIG. 5) ([2]; Colo205 xenograft mice): tumor growth became dull and a size of tumor was reduced after 2 or 3 weeks from the dose | MTV (n) Day 28 ([2]; 0.83 mg/kg po): 864 (10) mm^3 | Deaths NTR ([2]; 0.83 mg/kg po): 0 | % TGI [2]: 8% | Deaths TR ([2]; 0.83 mg/kg po): 0 | Eosinophils (ovariectomy (OVX) rats [3]; after ovariectomy): significantly increased | Basophils (ovariectomy (OVX) rats [3]; [8]): 0.03 ± 0.04 9% | Eosinophils (ovariectomy (OVX) rats [3]; [8]): 5.06 ± 2.88% | Hematocrit (ovariectomy (OVX) rats [3]; [8]): 44.94 ± 1.18% | Lymphocytes (ovariectomy (OVX) rats [3]; [8]): 73.36 ± 3.78% | Mean corpuscular hemoglobin (ovariectomy (OVX) rats [3]; [8]): 32.50 ± 1.75 pg | Mean corpuscular hemoglobin concentration (ovariectomy (OVX) rats [3]; [8]): 57.54 ± 1.76 g/dL | Mean corpuscular volume (ovariectomy (OVX) rats [3]; [8]): 54.44 ± 1.24 fL | Monocytes (ovariectomy (OVX) rats [3]; [8]): 2.60 ± 1.04% | Neutrophils (ovariectomy (OVX) rats [3]; [8]): 22.21 ± 5.19% | Platelet (ovariectomy (OVX) rats [3]; [8]): 1397.0 ± 81.27 10^3/mm^3 | Red blood cell (ovariectomy (OVX) rats [3]; [8]): 8.33 ± 0.45 10^6/µL | White blood cell (ovariectomy (OVX) rats [3]; [8]): 4.94 ± 2.17 10^3/μl | C-terminal telopeptide / CTx (ovariectomy (OVX) rats [4]; [9]): also reduced; also recorded: recovered to normal levels | osteocalcin (ovariectomy (OVX) rats [4]; [9]): recovered to normal levels | C-terminal telopeptide (ovariectomy (OVX) rats [4]; [10]): 4.340 ± 0.395^a ng/ml | osteocalcin (ovariectomy (OVX) rats [4]; [11]): 3.458 ± 0.254^ac ng/mL | weights of the organs (ovariectomy (OVX) rats [5]; OVX rats): does not significantly affect the weights of the organs | Adrenal gland Left weight (ovariectomy (OVX) rats [5]; [12]): 0.0098 ± 0.0014 g | Adrenal gland Right weight (ovariectomy (OVX) rats [5]; [12]): 0.0098 ± 0.0014 g | Brain weight (ovariectomy (OVX) rats [5]; [12]): 0.6126 ± 0.02 | Femur Left weight (ovariectomy (OVX) rats [5]; [12]): 0.3335 ± 0.02 g | Femur Right weight (ovariectomy (OVX) rats [5]; [12]): 0.3302 ± 0.02 g | Kidney: Left weight (ovariectomy (OVX) rats [5]; [12]): 0.2977 ± 0.01 g | Kidney: Right weight (ovariectomy (OVX) rats [5]; [12]): 0.2926 ± 0.02 g | Liver weight (ovariectomy (OVX) rats [5]; [12]): 2.5220 ± 0.15 g | Pituitary weight (ovariectomy (OVX) rats [5]; [12]): 4.3 ± 1 mg | Spleen weight (ovariectomy (OVX) rats [5]; [12]): 0.2056 ± 0.02 g | Uterus weight (ovariectomy (OVX) rats [5]; [12]): 0.0524 ± 0.02 g | Vagina weight (ovariectomy (OVX) rats [5]; [12]): 0.0665 ± 0.02 g | weights of the reproductive organs (uterus and vagina) (ovariectomy (OVX) rats [5]; reduced by ovariectomy): not restored | bone growth marker ALP (ovariectomy (OVX) rats [6]): recovered to a normal level | ALP (ovariectomy (OVX) rats [6]; [13]): 108.5 ± 21.7 IU/l | Albumin (ovariectomy (OVX) rats [6]; [13]): 2.8 ± 0.1 g/dL | BUN (ovariectomy (OVX) rats [6]; [13]): 9.5 ± 2.3 mg/dL | GOT (ovariectomy (OVX) rats [6]; [13]): 158.0 ± 32.4 IU/l | GPT (ovariectomy (OVX) rats [6]; [13]): 20.4 ± 4.5 IU/l | Glucose (ovariectomy (OVX) rats [6]; [13]): 110.4 ± 8.7 mg/dL | HDL (ovariectomy (OVX) rats [6]; [13]): 22.8 ± 6.2 mg/dL | LDL-C (ovariectomy (OVX) rats [6]; [13]): 8.1 ± 4.2 mg/dL | Phosphorus (ovariectomy (OVX) rats [6]; [13]): 4.2 ± 0.3 mg/dL | calcium (ovariectomy (OVX) rats [6]; [13]): 6.8 ± 0.3 mg/dL | Phosphorus (ovariectomy (OVX) rats [7]; [14]): completely recovered | calcium (ovariectomy (OVX) rats [7]; [14]): completely recovered | BMD (ovariectomy (OVX) rats [7]; [15]): 0.238 ± 0.011 g/cm² | BMD (ovariectomy (OVX) rats [7]; reduced by ovariectomy): completely recovered; also recorded: improved BMD | femoral breaking force (ovariectomy (OVX) rats [7]; three-point bending test, reduced by ovariectomy): completely recovered
